Values quoted from earlier work as cited in patent US20040115749A1, “Cardiovascular disease and thrombotic risk diagnostic tests” (priority 2001, published 2004).

Tested on: ELISA kit for 13(S)-HODE (anti-13(S)-HODE specific antibody)
Conditions: commercial ELISA kit for 13(S)-HODE

For CCCCC[C@@H](O)/C=C/C=C\CCCCCCCC(=O)O [13(R)-HODE], the cross-reactivity is listed as 10%.
